According to publication PMC10692473 (Acta Pharmaceutica Sinica. B, 2023):
Converted amounts (≈) assume the structure as drawn.

Legend:
S. aureus gyrase = S. aureus gyrase (Staphylococcus aureus, UniProt P0A0K8); experiment: Gyrase inhibitory assay; type: biochemical
S. aureus (ATCC29213) [1] = experiment: Time-killing curves / killing kinetic studies; type: cell-based; conditions: 4, 8, and 16 × MIC
S. aureus MSSA15-1 = experiment: Antibacterial spectrum; conditions: Staphylococcus aureus, MSSA151
S. aureus MSSA15-2 = experiment: Antibacterial spectrum; conditions: Staphylococcus aureus, MSSA152
E. faecium EFM19-1 = experiment: Antibacterial spectrum; conditions: Enterococcus faecium, EFM191
S. aureus MRSA15-1 = experiment: Antibacterial spectrum; conditions: Staphylococcus aureus, MRSA151
E. faecalis ATCC51299 = experiment: Antibacterial spectrum; conditions: Enterococcus faecalis
HepG2 cells = experiment: Mitochondrial toxicity; conditions: for mitochondrial toxicity: HepG2 cells
S. epidermidis MRSE15-2 = experiment: Antibacterial spectrum; conditions: Staphylococcus epidermidis, MRSE152
[2] = test system: methicillin-resistant S. aureus (ATCC43300); experiment: Mouse model of sepsis induced by MRSA; type: in vivo, ICR mice; conditions: 10 mg/kg ig, MRSA ATCC43300, observed 7 days
S. aureus VISA5836 = experiment: Antibacterial spectrum; conditions: Staphylococcus aureus
E. coli gyrase = E. coli gyrase (Escherichia coli, UniProt P0AES6); experiment: Gyrase inhibitory assay; type: biochemical
S. epidermidis MRSE15-1 = experiment: Antibacterial spectrum; conditions: Staphylococcus epidermidis, MRSE151
S. aureus VISA5827 = experiment: Antibacterial spectrum; conditions: Staphylococcus aureus
S. aureus MRSA15-2 = experiment: Antibacterial spectrum; conditions: Staphylococcus aureus, MRSA152
E. coli (ATCC25922) = experiment: Antibacterial assay; conditions: for MIC: Escherichia coli, ATCC25922, read-out: MIC E. coli (ATCC25922)
S. aureus (ATCC29213) [3] = experiment: Antibacterial assay; conditions: Staphylococcus aureus, ATCC29213, read-out: MIC S. aureus (ATCC29213)
S. epidermidis MSSE15-3 = experiment: Antibacterial spectrum; conditions: Staphylococcus epidermidis, MSSE153
S. aureus ATCC43300 = experiment: Antibacterial spectrum; conditions: Staphylococcus aureus
E. faecalis ATCC51575 = experiment: Antibacterial spectrum; conditions: Enterococcus faecalis
S. aureus GyrB24 = S. aureus GyrB24 (Staphylococcus aureus, UniProt P0A0K8); experiment: Surface plasmon resonance; type: binding
S. aureus GyrB24, sequence (P0A0K8 2-220): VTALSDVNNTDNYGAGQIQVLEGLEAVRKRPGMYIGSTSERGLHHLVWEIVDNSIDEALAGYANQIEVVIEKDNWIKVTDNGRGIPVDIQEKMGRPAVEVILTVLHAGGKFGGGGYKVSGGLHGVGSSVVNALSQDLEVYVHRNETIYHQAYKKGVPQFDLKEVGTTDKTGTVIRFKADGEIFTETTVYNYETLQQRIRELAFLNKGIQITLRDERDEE

E. coli Topo IV = E. coli Topo IV (Escherichia coli, UniProt P20083); experiment: Topo IV inhibitory assay; type: biochemical
E. coli Topo IV, sequence (P20083 whole entry): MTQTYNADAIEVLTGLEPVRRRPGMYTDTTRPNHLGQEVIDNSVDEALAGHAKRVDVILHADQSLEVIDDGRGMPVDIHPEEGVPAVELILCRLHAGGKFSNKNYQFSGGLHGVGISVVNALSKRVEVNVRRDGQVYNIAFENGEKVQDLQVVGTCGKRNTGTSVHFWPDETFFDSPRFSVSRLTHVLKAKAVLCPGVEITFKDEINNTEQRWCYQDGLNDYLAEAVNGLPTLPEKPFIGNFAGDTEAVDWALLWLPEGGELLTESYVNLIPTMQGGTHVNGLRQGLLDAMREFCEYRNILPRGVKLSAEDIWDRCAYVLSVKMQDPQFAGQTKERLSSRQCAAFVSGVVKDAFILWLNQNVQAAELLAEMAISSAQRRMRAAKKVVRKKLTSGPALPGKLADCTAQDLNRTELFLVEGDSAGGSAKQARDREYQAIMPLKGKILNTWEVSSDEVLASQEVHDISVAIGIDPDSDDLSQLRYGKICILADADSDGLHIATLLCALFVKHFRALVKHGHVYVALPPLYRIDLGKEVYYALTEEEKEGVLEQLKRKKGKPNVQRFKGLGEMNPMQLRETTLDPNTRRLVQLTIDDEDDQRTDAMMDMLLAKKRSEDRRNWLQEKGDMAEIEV
E. coli Topo IV, sequence (P0AFI2 whole entry partner): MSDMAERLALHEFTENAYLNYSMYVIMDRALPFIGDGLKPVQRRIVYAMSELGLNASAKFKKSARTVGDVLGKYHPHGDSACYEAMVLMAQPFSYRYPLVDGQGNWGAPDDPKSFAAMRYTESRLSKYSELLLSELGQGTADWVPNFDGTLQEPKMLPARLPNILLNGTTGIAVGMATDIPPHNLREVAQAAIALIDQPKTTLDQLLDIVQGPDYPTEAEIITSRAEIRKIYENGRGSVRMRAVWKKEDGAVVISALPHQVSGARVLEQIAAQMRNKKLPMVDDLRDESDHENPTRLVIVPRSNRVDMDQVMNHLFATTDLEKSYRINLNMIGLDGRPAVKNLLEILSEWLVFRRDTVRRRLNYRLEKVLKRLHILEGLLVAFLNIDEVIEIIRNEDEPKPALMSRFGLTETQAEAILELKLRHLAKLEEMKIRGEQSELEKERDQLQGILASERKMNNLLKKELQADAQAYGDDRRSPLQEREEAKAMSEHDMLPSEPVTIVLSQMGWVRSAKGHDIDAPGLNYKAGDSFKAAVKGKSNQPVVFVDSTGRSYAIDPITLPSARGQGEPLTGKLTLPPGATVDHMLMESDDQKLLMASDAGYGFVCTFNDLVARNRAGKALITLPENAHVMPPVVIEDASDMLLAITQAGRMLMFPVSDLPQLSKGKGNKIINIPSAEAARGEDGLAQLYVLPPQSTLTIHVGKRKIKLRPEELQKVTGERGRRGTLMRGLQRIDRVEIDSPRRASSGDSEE

S. aureus Topo IV = S. aureus Topo IV (Staphylococcus aureus, UniProt P0C1S7); experiment: Topo IV inhibitory assay; type: biochemical
S. aureus Topo IV, sequence (P0C1S7 whole entry): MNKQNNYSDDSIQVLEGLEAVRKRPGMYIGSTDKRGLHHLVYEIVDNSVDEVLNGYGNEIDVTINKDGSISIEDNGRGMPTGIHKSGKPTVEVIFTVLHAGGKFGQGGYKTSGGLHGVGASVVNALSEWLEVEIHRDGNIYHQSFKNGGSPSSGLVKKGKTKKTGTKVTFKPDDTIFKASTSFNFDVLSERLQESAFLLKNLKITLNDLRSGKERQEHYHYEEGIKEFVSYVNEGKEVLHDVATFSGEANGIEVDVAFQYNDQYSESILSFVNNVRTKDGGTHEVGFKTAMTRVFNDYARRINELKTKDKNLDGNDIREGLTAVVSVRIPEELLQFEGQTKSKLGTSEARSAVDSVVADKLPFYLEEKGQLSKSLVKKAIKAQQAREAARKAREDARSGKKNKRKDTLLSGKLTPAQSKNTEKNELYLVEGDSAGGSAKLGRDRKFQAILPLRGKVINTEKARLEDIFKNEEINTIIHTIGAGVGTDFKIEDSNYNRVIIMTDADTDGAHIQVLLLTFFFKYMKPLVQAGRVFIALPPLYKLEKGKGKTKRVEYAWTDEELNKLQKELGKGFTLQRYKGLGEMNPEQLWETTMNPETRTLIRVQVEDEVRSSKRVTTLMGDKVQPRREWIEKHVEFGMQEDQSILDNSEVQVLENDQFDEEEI
S. aureus Topo IV, sequence (P0C1U9 whole entry partner): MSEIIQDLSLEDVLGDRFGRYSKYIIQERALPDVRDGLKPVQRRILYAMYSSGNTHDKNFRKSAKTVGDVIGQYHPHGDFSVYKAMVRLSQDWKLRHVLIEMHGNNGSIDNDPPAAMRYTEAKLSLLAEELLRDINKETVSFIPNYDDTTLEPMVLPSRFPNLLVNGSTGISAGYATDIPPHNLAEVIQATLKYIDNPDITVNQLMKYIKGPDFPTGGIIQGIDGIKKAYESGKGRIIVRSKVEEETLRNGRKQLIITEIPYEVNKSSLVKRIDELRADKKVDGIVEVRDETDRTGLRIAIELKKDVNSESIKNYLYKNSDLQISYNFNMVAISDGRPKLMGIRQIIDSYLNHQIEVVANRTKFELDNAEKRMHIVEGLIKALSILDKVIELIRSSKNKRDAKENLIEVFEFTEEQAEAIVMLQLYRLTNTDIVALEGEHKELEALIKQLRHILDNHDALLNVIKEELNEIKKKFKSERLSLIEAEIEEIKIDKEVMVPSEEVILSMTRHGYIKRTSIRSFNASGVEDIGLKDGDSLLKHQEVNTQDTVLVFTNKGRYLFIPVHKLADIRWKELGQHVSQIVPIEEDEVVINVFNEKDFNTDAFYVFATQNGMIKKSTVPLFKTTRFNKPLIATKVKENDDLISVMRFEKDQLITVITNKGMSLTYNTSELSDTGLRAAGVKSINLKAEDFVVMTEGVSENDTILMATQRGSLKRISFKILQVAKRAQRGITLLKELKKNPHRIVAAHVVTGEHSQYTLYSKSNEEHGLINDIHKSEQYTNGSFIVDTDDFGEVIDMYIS

P. aeruginosa ATCC27853 = experiment: Antibacterial spectrum; conditions: Pseudomonas aeruginosa
[4] = Pharmacokinetics study on beagle dogs; type: in vivo
[5] = test system: susceptible and resistant Gram-positive bacteria; experiment: Antibacterial spectrum; type: cell-based, S. aureus, S. epidermidis, E. faecalis, E. faecium; conditions: read-out: MIC against susceptible and resistant Gram-positive bacteria
hERG channel = hERG channel (Homo sapiens, UniProt Q12809); experiment: Inhibition evaluation on hERG K+ channel; type: cell-based
Cytotoxicity assay [6] = conditions: human, HEK293 embryonic kidney cells
[7] = test system: methicillin-resistant S. aureus (ATCC43300); experiment: Spontaneous drug resistance frequency; type: cell-based; conditions: MRSA ATCC43300, 4 × MIC
[8] = test system: Salmonella typhimurium TA98 and TA100 strains; experiment: Mini-Ames test; type: cell-based
MRSA (ATCC43300) = experiment: Neutropenic murine thigh MRSA infection model; type: in vivo, ICR mice
S. aureus (ATCC29213) [9] = experiment: Spontaneous drug resistance frequency; type: cell-based; conditions: S. aureus ATCC29213, 4 × MIC
Cytotoxicity assay [10] = conditions: human, HK2 renal tubular epithelial cells
Cytotoxicity assay [11] = conditions: human, LO2 normal hepatocytes
[12] = Mouse acute toxicity test; parameters: species or system ICR mice; conditions: both, ICR, in vivo
A. baumannii ATCC19606 = experiment: Antibacterial spectrum; conditions: Acinetobacter baumannii
[13] = both, beagle, dog, plasma, iv, 1 mg/kg
[14] = both, beagle, dog, plasma, po, 1 mg/kg

S. aureus gyrase, sequence (P0A0K8 whole entry): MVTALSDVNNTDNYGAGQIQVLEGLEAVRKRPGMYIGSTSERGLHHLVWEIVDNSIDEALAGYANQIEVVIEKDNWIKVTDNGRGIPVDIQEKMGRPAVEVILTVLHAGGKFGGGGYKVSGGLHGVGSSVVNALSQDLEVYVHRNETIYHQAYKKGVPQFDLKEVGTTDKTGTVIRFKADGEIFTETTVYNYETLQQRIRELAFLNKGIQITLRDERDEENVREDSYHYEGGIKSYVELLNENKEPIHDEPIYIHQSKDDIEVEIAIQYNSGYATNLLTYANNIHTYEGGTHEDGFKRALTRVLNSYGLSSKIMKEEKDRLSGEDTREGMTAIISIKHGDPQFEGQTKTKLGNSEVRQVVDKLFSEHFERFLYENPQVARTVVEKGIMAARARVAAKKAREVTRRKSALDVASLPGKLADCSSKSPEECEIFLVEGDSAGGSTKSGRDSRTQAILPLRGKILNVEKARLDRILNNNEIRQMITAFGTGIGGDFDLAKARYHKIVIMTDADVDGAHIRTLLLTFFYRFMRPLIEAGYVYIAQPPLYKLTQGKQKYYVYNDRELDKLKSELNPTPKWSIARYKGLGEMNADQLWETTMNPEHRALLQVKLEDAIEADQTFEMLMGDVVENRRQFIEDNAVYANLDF
S. aureus gyrase, sequence (P20831 whole entry partner): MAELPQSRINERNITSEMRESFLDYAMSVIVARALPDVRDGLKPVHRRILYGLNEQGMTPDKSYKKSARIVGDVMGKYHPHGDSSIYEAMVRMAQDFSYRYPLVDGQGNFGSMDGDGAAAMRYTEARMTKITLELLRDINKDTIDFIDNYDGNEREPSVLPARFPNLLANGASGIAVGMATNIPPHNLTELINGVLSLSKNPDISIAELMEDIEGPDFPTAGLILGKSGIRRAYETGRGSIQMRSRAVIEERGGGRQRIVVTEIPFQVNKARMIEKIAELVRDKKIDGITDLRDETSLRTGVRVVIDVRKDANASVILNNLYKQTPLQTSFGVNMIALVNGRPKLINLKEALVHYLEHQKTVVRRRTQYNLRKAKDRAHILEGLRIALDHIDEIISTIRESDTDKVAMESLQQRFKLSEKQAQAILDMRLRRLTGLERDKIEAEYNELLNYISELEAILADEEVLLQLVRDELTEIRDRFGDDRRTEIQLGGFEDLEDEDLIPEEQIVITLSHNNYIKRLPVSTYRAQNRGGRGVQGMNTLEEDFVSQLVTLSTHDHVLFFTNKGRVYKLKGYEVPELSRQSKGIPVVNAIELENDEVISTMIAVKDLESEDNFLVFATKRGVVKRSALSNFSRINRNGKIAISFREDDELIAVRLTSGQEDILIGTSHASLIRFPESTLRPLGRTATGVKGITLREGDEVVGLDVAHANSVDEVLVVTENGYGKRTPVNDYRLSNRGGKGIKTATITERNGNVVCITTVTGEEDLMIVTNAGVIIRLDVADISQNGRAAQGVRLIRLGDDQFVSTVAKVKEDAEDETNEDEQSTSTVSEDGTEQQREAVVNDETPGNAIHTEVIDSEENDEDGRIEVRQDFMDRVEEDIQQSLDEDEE

COC[C@H](C)NC(=O)c1nc(N2CC[C@@H](NC(=O)c3[nH]c(C)c(Cl)c3Cl)[C@@H](OC)C2)sc1C(=O)O [AZD5099 (6), reference compound]
IC50 (S. aureus gyrase): 0.032 ± 0.014 µM | time-kill curve (S. aureus (ATCC29213) [1]): time-dependent bactericidal effect | MIC (S. aureus MSSA15-1): 0.03 µg/mL (≈ 0.0547 µM) | MIC (S. aureus MSSA15-2): 0.03 µg/mL (≈ 0.0547 µM) | MIC (E. faecium EFM19-1): 0.03 µg/mL (≈ 0.0547 µM) | MIC (S. aureus MRSA15-1): 0.03 µg/mL (≈ 0.0547 µM) | MIC (E. faecalis ATCC51299): 0.03 µg/mL (≈ 0.0547 µM) | mitochondrial toxicity (HepG2 cells; 400 μmol/L): complete damage | IC50 (HepG2 cells; Homo sapiens, HepG2, read-out: mitochondrial toxicity IC50): < 200 µM | MIC (S. epidermidis MRSE15-2): 0.03 µg/mL (≈ 0.0547 µM) | protective effect / survival in mouse model of sepsis [2]: survived | MIC (S. aureus VISA5836): 0.015 µg/mL (≈ 0.0273 µM) | IC50 (E. coli gyrase): 0.76 µM | MIC (S. epidermidis MRSE15-1): 0.03 µg/mL (≈ 0.0547 µM) | MIC (S. aureus VISA5827): 0.015 µg/mL (≈ 0.0273 µM) | MIC (S. aureus MRSA15-2): 0.03 µg/mL (≈ 0.0547 µM) | MIC (E. coli (ATCC25922)): 32 µg/mL (≈ 58.3 µM) | MIC (S. aureus (ATCC29213) [3]): 0.015 µg/mL (≈ 0.0273 µM) | MIC (S. epidermidis MSSE15-3): 0.03 µg/mL (≈ 0.0547 µM) | MIC (S. aureus ATCC43300): 0.03 µg/mL (≈ 0.0547 µM) | MIC (E. faecalis ATCC51575): 0.03 µg/mL (≈ 0.0547 µM) | Kd (S. aureus GyrB24): 0.0838 µM

COC(=O)c1ccc(N2CC[C@@H](NC(=O)c3[nH]c(C)c(Cl)c3Cl)[C@@H](OC)C2)nn1 [Compound 14, Methyl-6-((3S,4R)-4-(3,4-dichloro-5-methyl-1H-pyrrole-2-carboxamido)-3-methoxypiperidin-1-yl)pyridazine-3-carboxylate]
IC50 (S. aureus gyrase): 0.136 ± 0.02 µM | IC50 (E. coli Topo IV): > 10 µM | protective effect / survival in mouse model of sepsis [2]: weak protective effects | IC50 (E. coli gyrase): 3.12 ± 0.923 µM | IC50 (S. aureus Topo IV): 7.18 ± 2.81 µM | MIC (E. coli (ATCC25922)): 1 µg/mL (≈ 2.26 µM) | MIC (S. aureus (ATCC29213) [3]): 0.015 µg/mL (≈ 0.0339 µM)

CO[C@H]1CN(c2ccc(C(C)(C)O)nn2)CC[C@H]1NC(=O)c1[nH]c(C)c(Cl)c1Cl [Compound 28, 3,4-Dichloro-N-((3S,4R)-1-(6-(2-hydroxypropan-2-yl)pyridazin-3-yl)-3-methoxypiperidin-4-yl)-5-methyl-1H-pyrrole-2-carboxamide]
IC50 (S. aureus gyrase): 0.049 ± 0.005 µM | time-kill curve (S. aureus (ATCC29213) [1]): time-dependent bactericidal effect | MIC (P. aeruginosa ATCC27853): 4 µg/mL (≈ 9.04 µM) | MIC (S. aureus MSSA15-1): 0.015 µg/mL (≈ 0.0339 µM) | MIC (S. aureus MSSA15-2): 0.015 µg/mL (≈ 0.0339 µM) | IC50 (E. coli Topo IV): > 10 µM | MIC (E. faecium EFM19-1): 0.015 µg/mL (≈ 0.0339 µM) | MIC (S. aureus MRSA15-1): 0.015 µg/mL (≈ 0.0339 µM) | MIC (E. faecalis ATCC51299): 0.015 µg/mL (≈ 0.0339 µM) | Cmax [4, 13]: 5510 ng/mL | MRT inf [4, 13]: 12.3 h | MRT last [4, 13]: 9.79 h | Tmax [4, 13]: 0.873 h | clearance [4, 13]: 0.33 mL/min/kg | half-life [4, 13]: 11.3 h | Cmax [4, 14]: 3750 ng/mL | MRT inf [4, 14]: 9.85 h | MRT last [4, 14]: 9.07 h | Tmax [4, 14]: 1.75 h | bioavailability [4, 14]: 66.8% | half-life [4, 14]: 8.53 h | AUC0–48 ([4]; iv (1 mg/kg)): 56,432.101 μg·h | AUC0–∞ ([4]; iv (1 mg/kg)): 58,890.621 μg·h | AUC0–48 ([4]; po (1 mg/kg)): 38,552.203 μg·h | AUC0–∞ ([4]; po (1 mg/kg)): 39,362.651 μg·h | mitochondrial toxicity (HepG2 cells; 50–800 μmol/L): much less toxicity | MIC (S. epidermidis MRSE15-2): 0.015 µg/mL (≈ 0.0339 µM) | protective effect / survival in mouse model of sepsis [2]: survived | MIC [5]: < 0.03 µg/mL | IC50 (hERG channel): > 30 µM | MIC (S. aureus VISA5836): 0.015 µg/mL (≈ 0.0339 µM) | IC50 at 48 h (Cytotoxicity assay [6]): > 10 µM | IC50 (E. coli gyrase): 1.48 ± 0.441 µM | spontaneous resistance frequency [7]: < 4.3 × 10^–12 | mutagenic effects in Mini-Ames test [8]: did not show any mutagenic effects | IC50 (S. aureus Topo IV): 1.51 ± 0.46 µM | reduction of colony-forming unit (CFU) in the thigh (MRSA (ATCC43300); 2.5 mg/kg iv, 24 h): 3–4 log10 | spontaneous resistance frequency (S. aureus (ATCC29213) [9]): less than 8 × 10^–12 | IC50 at 48 h (Cytotoxicity assay [10]): > 10 µM | MIC (S. epidermidis MRSE15-1): 0.015 µg/mL (≈ 0.0339 µM) | MIC (S. aureus VISA5827): 0.015 µg/mL (≈ 0.0339 µM) | MIC (S. aureus MRSA15-2): 0.015 µg/mL (≈ 0.0339 µM) | MIC (E. coli (ATCC25922)): 1 µg/mL (≈ 2.26 µM) | MIC (S. aureus (ATCC29213) [3]): ≤ 0.015 µg/mL | MIC (S. epidermidis MSSE15-3): 0.015 µg/mL (≈ 0.0339 µM) | MIC (S. aureus ATCC43300): 0.015 µg/mL (≈ 0.0339 µM) | IC50 at 48 h (Cytotoxicity assay [11]): > 10 µM | LD50 at 7 days ([12]; ip): > 300 mg/kg | LD50 at 7 days ([12]; iv): > 100 mg/kg | LD50 at 7 days ([12]; po): > 800 mg/kg | MIC (A. baumannii ATCC19606): 8 µg/mL (≈ 18.1 µM) | MIC (E. faecalis ATCC51575): 0.03 µg/mL (≈ 0.0678 µM) | Kd (S. aureus GyrB24): 0.052 µM

CO[C@H]1CN(c2ccc(C(=O)C(F)(F)F)nn2)CC[C@H]1NC(=O)c1[nH]c(C)c(Cl)c1Cl [Compound 22, 3,4-Dichloro-N-((3S,4R)-3-methoxy-1-(6-(2,2,2-trifluoroacetyl)pyridazin-3-yl)piperidin-4-yl)-5-methyl-1H-pyrrole-2-carboxamide]
IC50 (S. aureus gyrase): 0.045 ± 0.009 µM | IC50 (E. coli Topo IV): > 10 µM | protective effect / survival in mouse model of sepsis [2]: weak protective effects | IC50 (E. coli gyrase): 0.788 ± 0.289 µM | IC50 (S. aureus Topo IV): 2.13 ± 0.753 µM | MIC (E. coli (ATCC25922)): 1 µg/mL (≈ 2.08 µM) | MIC (S. aureus (ATCC29213) [3]): ≤ 0.015 µg/mL

CN[C@H](CC(C)C)C(=O)N[C@H]1C(=O)N[C@@H](CC(N)=O)C(=O)N[C@H]2C(=O)N[C@H]3C(=O)N[C@H](C(=O)N[C@H](C(=O)O)c4cc(O)cc(O)c4-c4cc3ccc4O)[C@H](O)c3ccc(c(Cl)c3)Oc3cc2cc(c3O[C@@H]2O[C@H](CO)[C@@H](O)[C@H](O)[C@H]2O[C@H]2C[C@](C)(N)[C@H](O)[C@H](C)O2)Oc2ccc(cc2Cl)[C@H]1O [vancomycin, reference compound]
effective dose (MRSA (ATCC43300); neutropenic mouse thigh MRSA infection, iv): 110 mg/kg

CO[C@H]1CN(c2ccc(/C(C)=N/OC(C)(C)C(=O)O)nn2)CC[C@H]1NC(=O)c1[nH]c(C)c(Cl)c1Cl [Compound 26, 2-((((E)-1-(6-((3S,4R)-4-(3,4-Dichloro-5-methyl-1H-pyrrole-2-carboxamido)-3-methoxypiperidin-1-yl)pyridazin-3-yl)ethylidene)amino)oxy)-2-methylpropanoic acid]
IC50 (S. aureus gyrase): 0.052 ± 0.013 µM | IC50 (E. coli Topo IV): > 10 µM | IC50 (E. coli gyrase): 0.869 ± 0.313 µM | IC50 (S. aureus Topo IV): 5.71 ± 2.14 µM | MIC E. coli (ATCC25922) (E. coli (ATCC25922)): inactive | MIC (E. coli (ATCC25922)): > 128 µg/mL | MIC (S. aureus (ATCC29213) [3]): 0.125 µg/mL (≈ 0.237 µM)
